The results in this text go back to patent US8501770B2 (ArQule, Inc., priority 2009, dated 2013).

The target in this assay is Full-length inactive AKT1 (Homo sapiens, UniProt P31749). Nature of the assay: Inactive Akt Alpha Screen Assay. The assay is classed as biochemical. Particulars: values not marked with "*"; read-out: Akt1 IC50, (AlphaScreen). The method, boiled down: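 AlphaScreen read-out (excitation 640 nm, emission 570 nm) after 90 min incubation at room temperature in the dark. Signal comes from crosstide phosphorylation by AKT1, which was activated by added PDK1, MAPKAPK2, ATP and lipid vesicles, captured via phospho-AKT substrate antibody and streptavidin beads.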
Sequence of Full-length inactive AKT1 (P31749 whole entry): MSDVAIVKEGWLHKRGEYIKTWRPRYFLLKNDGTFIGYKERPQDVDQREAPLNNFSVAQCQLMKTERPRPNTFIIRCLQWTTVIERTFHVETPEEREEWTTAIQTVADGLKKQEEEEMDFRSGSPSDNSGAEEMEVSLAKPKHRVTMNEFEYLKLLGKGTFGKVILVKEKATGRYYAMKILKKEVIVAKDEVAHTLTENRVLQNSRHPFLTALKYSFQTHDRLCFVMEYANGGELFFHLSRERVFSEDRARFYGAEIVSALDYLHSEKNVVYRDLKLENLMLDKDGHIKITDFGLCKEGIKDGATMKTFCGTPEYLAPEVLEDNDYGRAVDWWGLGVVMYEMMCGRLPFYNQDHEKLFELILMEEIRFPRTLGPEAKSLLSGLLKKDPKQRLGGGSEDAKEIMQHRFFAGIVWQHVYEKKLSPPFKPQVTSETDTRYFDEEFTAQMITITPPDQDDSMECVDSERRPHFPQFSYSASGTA
(In Alpha technology, singlet oxygen from a donor bead excites a nearby acceptor bead.)
The term IC50 denotes the concentration needed to halve the response being measured. For `Nc1ncccc1-c1nc2ccc(N3CCCCC3)nc2n1-c1ccc(CNC(=O)c2ccc(Br)cc2)cc1` [Example 191, N-(4-(2-(2-aminopyridin-3-yl)-5-(piperidin-1-yl)-3H-imidazo[4,5-b]pyridin-3-yl)benzyl)-4-bromobenzamide], the IC50 was 1100 nM. The figure for `Nc1ncccc1-c1nc2ccc(N3CCCCC3)nc2n1-c1ccc(CNC(=O)c2ccccc2)cc1` [Example 192, N-(4-(2-(2-aminopyridin-3-yl)-5-(piperidin-1-yl)-3H-imidazo[4,5-b]pyridin-3-yl)benzyl)benzamide] is 200 nM. The figure for `CC(=O)Nc1ccc(NC(=O)Cc2ccc(-n3c(-c4cccnc4N)nc4cc(C)cnc43)cc2)cc1` [Example 193, N-(4-acetamidophenyl)-2-(4-(2-(2-aminopyridin-3-yl)-6-methyl-3H-imidazo[4,5-b]pyridin-3-yl)phenyl)acetamide] is 62 nM. On to `Cc1cnc2c(c1)nc(-c1cccnc1N)n2-c1ccc(CC(=O)Nc2ccc3nc(C)ccc3c2)cc1` [Example 194, 2-(4-(2-(2-aminopyridin-3-yl)-6-methyl-3H-imidazo[4,5-b]pyridin-3-yl)phenyl)-N-(2-methylquinolin-6-yl)acetamide], for which the IC50 was determined as 47 nM. Regarding `Cc1cnc2c(c1)nc(-c1cccnc1N)n2-c1ccc(CC(=O)Nc2ccccc2)cc1` [Example 195, 2-(4-(2-(2-aminopyridin-3-yl)-6-methyl-3H-imidazo[4,5-b]pyridin-3-yl)phenyl)-N-phenylacetamide], the IC50 was 76 nM. The figure for `CS(=O)(=O)NCc1ccc(-n2c(-c3cccnc3N)nc3cc(-c4cccnc4)cnc32)cc1` [Example 196, N-(4-(2-(2-aminopyridin-3-yl)-6-(pyridin-3-yl)-3H-imidazo[4,5-b]pyridin-3-yl)benzyl)methanesulfonamide] is 140 nM; for `CC(=O)Nc1ccc(-c2cnc3c(c2)nc(-c2cccnc2N)n3-c2ccc(CNC(=O)c3ccccc3)cc2)cc1` [Example 197, N-(4-(6-(4-acetamidophenyl)-2-(2-aminopyridin-3-yl)-3H-imidazo[4,5-b]pyridin-3-yl)benzyl)benzamide] it is 47 nM; for `Nc1ncccc1-c1nc2ccc(Cl)nc2n1-c1ccc(CNC(=O)c2ccccc2)cc1` [Example 198, N-(4-(2-(2-aminopyridin-3-yl)-5-chloro-3H-imidazo[4,5-b]pyridin-3-yl)benzyl)benzamide] it is 61 nM. The figure for `Nc1ncccc1-c1nc2cc(C(F)(F)F)cnc2n1-c1ccc(CNC(=O)c2ccccc2)cc1` [Example 199, N-(4-(2-(2-aminopyridin-3-yl)-6-(trifluoromethyl)-3H-imidazo[4,5-b]pyridin-3-yl)benzyl)benzamide] is 200 nM; for `Nc1ncccc1-c1nc2cc(-c3cccnc3)cnc2n1-c1ccc(CNS(=O)(=O)c2ccccc2)cc1` [Example 200, N-(4-(2-(2-aminopyridin-3-yl)-6-(pyridin-3-yl)-3H-imidazo[4,5-b]pyridin-3-yl)benzyl)benzenesulfonamide] it is 74 nM; for `Nc1ncccc1-c1nc2ccc(-c3cccnc3)nc2n1-c1ccc(CNC(=O)c2ccccc2)cc1` [Example 201, N-(4-(2-(2-aminopyridin-3-yl)-5-(pyridin-3-yl)-3H-imidazo[4,5-b]pyridin-3-yl)benzyl)benzamide] it is 32 nM. With `Nc1ncccc1-c1nc2ccc(-c3ccccc3)nc2n1-c1ccc(CNC(=O)c2ccccc2)cc1` [Example 202, N-(4-(2-(2-aminopyridin-3-yl)-5-phenyl-3H-imidazo[4,5-b]pyridin-3-yl)benzyl)benzamide], the IC50 was found to be 27 nM. On to `Nc1ncccc1-c1nc2ccc(Cl)nc2n1-c1ccc(CNC(=O)c2cccc(F)c2)cc1` [Example 203, N-(4-(2-(2-aminopyridin-3-yl)-5-chloro-3H-imidazo[4,5-b]pyridin-3-yl)benzyl)-3-fluorobenzamide], for which the IC50 is 81 nM. As to `CC(=O)Nc1cccc(-c2ccc3nc(-c4cccnc4N)n(-c4ccc(CNC(=O)c5cccc(F)c5)cc4)c3n2)c1` [Example 204, N-(4-(5-(3-acetamidophenyl)-2-(2-aminopyridin-3-yl)-3H-imidazo[4,5-b]pyridin-3-yl)benzyl)-3-fluorobenzamide], the IC50 was determined as 7.3 nM.

Consider `Nc1ncccc1-c1nc2cc(-c3cccnc3)cnc2n1-c1ccc(CNS(=O)(=O)C2CC2)cc1` [Example 205, N-(4-(2-(2-aminopyridin-3-yl)-6-(pyridin-3-yl)-3H-imidazo[4,5-b]pyridin-3-yl)benzyl)cyclopropanesulfonamide], for which the IC50 is 59 nM. The same measure for `COc1ccc(S(=O)(=O)NCc2ccc(-n3c(-c4cccnc4N)nc4cc(-c5cccnc5)cnc43)cc2)cc1` [Example 206, N-(4-(2-(2-aminopyridin-3-yl)-6-(pyridin-3-yl)-3H-imidazo[4,5-b]pyridin-3-yl)benzyl)-4-methoxybenzenesulfonamide]: 130 nM; for `Nc1ncccc1-c1nc2cc(-c3cccnc3)cnc2n1-c1ccc(CNS(=O)(=O)c2ccc(Cl)cc2)cc1` [Example 207, N-(4-(2-(2-aminopyridin-3-yl)-6-(pyridin-3-yl)-3H-imidazo[4,5-b]pyridin-3-yl)benzyl)-4-chlorobenzenesulfonamide]: 60 nM.

For `CC(C)(C)OC(=O)NCc1ccc(-n2c(-c3cccnc3N)nc3ccc(-c4ccncc4)nc32)cc1` [Example 208, tert-butyl 4-(2-(2-aminopyridin-3-yl)-5-(pyridin-4-yl)-3H-imidazo[4,5-b]pyridin-3-yl)benzylcarbamate], the IC50 came to 180 nM. The same measure for `Cc1ccnc2c1nc(-c1cccnc1N)n2-c1ccc(CNC(=O)c2ccccc2)cc1` [Example 210, N-(4-(2-(2-aminopyridin-3-yl)-7-methyl-3H-imidazo[4,5-b]pyridin-3-yl)benzyl)benzamide]: 210 nM; for `Cc1cnc2c(c1)nc(-c1cccnc1N)n2-c1ccc(CNC(=O)c2cccc(N(C)C)c2)cc1` [Example 211, N-(4-(2-(2-aminopyridin-3-yl)-6-methyl-3H-imidazo[4,5-b]pyridin-3-yl)benzyl)-3-(dimethylamino)benzamide]: 61 nM; for `Cc1cnc2c(c1)nc(-c1cccnc1N)n2-c1ccc(CNC(=O)c2cn(C)c3ccccc23)cc1` [Example 212, N-(4-(2-(2-aminopyridin-3-yl)-6-methyl-3H-imidazo[4,5-b]pyridin-3-yl)benzyl)-1-methyl-1H-indole-3-carboxamide]: 200 nM.

Regarding `Cc1cnc2c(c1)nc(-c1cccnc1N)n2-c1ccc(CNC(=O)CCC2CCCCC2)cc1` [Example 213, N-(4-(2-(2-aminopyridin-3-yl)-6-methyl-3H-imidazo[4,5-b]pyridin-3-yl)benzyl)-3-cyclohexylpropanamide], the IC50 was 480 nM. The figure for `Cc1cnc2c(c1)nc(-c1cccnc1N)n2-c1ccc(CNC(=O)c2ccccc2-n2cccc2)cc1` [Example 214, N-(4-(2-(2-aminopyridin-3-yl)-6-methyl-3H-imidazo[4,5-b]pyridin-3-yl)benzyl)-2-(1H-pyrrol-1-yl)benzamide] is 23 nM. Regarding `Cc1cnc2c(c1)nc(-c1cccnc1N)n2-c1ccc(CNC(=O)C2Cc3ccccc3C2)cc1` [Example 215, N-(4-(2-(2-aminopyridin-3-yl)-6-methyl-3H-imidazo[4,5-b]pyridin-3-yl)benzyl)-2,3-dihydro-1H-indene-2-carboxamide], the IC50 is 730 nM. With `Cc1cccc(C(=O)NCc2ccc(-n3c(-c4cccnc4N)nc4cc(C)cnc43)cc2)c1` [Example 216, N-(4-(2-(2-aminopyridin-3-yl)-6-methyl-3H-imidazo[4,5-b]pyridin-3-yl)benzyl)-3-methylbenzamide], the IC50 was 77 nM. The figure for `Cc1cnc2c(c1)nc(-c1cccnc1N)n2-c1ccc(CNC(=O)c2ccc(Cl)cc2F)cc1` [Example 217, N-(4-(2-(2-aminopyridin-3-yl)-6-methyl-3H-imidazo[4,5-b]pyridin-3-yl)benzyl)-4-chloro-2-fluorobenzamide] is 84 nM; for `Cc1cnc2c(c1)nc(-c1cccnc1N)n2-c1ccc(CNC(=O)c2ccccc2Cl)cc1` [Example 218, N-(4-(2-(2-aminopyridin-3-yl)-6-methyl-3H-imidazo[4,5-b]pyridin-3-yl)benzyl)-2-chlorobenzamide] it is 63 nM; for `Cc1cnc2c(c1)nc(-c1cccnc1N)n2-c1ccc(CNC(=O)Cc2ccccc2)cc1` [Example 219, N-(4-(2-(2-aminopyridin-3-yl)-6-methyl-3H-imidazo[4,5-b]pyridin-3-yl)benzyl)-2-phenylacetamide] it is 230 nM. The same measure for `CC(=O)Nc1ccc(C(=O)NCc2ccc(-n3c(-c4cccnc4N)nc4cc(C)cnc43)cc2)cc1` [Example 220, 4-acetamido-N-(4-(2-(2-aminopyridin-3-yl)-6-methyl-3H-imidazo[4,5-b]pyridin-3-yl)benzyl)benzamide]: 54 nM; for `COc1ccccc1C(=O)NCc1ccc(-n2c(-c3cccnc3N)nc3cc(C)cnc32)cc1` [Example 221, N-(4-(2-(2-aminopyridin-3-yl)-6-methyl-3H-imidazo[4,5-b]pyridin-3-yl)benzyl)-2-methoxybenzamide]: 260 nM.

Turning to `Cc1cnc2c(c1)nc(-c1cccnc1N)n2-c1ccc(CNC(=O)c2ccc(N(C)C)cc2)cc1` [Example 222, N-(4-(2-(2-aminopyridin-3-yl)-6-methyl-3H-imidazo[4,5-b]pyridin-3-yl)benzyl)-4-(dimethylamino)benzamide], the IC50 is 43 nM.

Regarding `Cc1cnc2c(c1)nc(-c1cccnc1N)n2-c1ccc(CNC(=O)c2ccccc2C)cc1` [Example 223, N-(4-(2-(2-aminopyridin-3-yl)-6-methyl-3H-imidazo[4,5-b]pyridin-3-yl)benzyl)-2-methylbenzamide], the IC50 is 30 nM. For the molecule `Cc1cnc2c(c1)nc(-c1cccnc1N)n2-c1ccc(CNC(=O)c2cccc3ccccc23)cc1` [Example 224, N-(4-(2-(2-aminopyridin-3-yl)-6-methyl-3H-imidazo[4,5-b]pyridin-3-yl)benzyl)-1-naphthamide], the IC50 is 50 nM.
